Results taken from US9414591B2, “Chitooligosaccharides and methods for use in enhancing corn growth” (NOVOZYMES BIOAG A/S, priority 2011, dated 2016).

Assays:
Format in all cases: in vivo
corn seed = assay: Field trials, grain yield when applied to corn seed before planting (Example 5)
corn foliage = assay: Field trials, grain yield when applied to corn foliage (Example 4)
[1] = system: Hybrid corn seeds (92L90); assay: Greenhouse corn seed treatment, plant dry weight (Example 1); conditions: seed treatment solution 10^-8 M
Protocol: Two seed treatment experiments using only Pea LCO, Pea CO and the CO mixtures obtained from chitosan by enzymatic process (structurally distinct from the Pea CO, and also referred to in the examples as the “China CO”) were performed in greenhouse. Hybrid corn seeds (92L90, Peterson Farm, USA) were treated with treatment solution (10^-8 M) at the rate of 3 fl oz/100 lbs of seed. Seeds were planted in plastic pots containing 1:1 Sand:Perlite mixture. Seeds were allowed to grow for about 3-4 weeks and then they were harvested and their dry weight measured.

Corn seeds [2] = assay: Greenhouse corn seed application, seedling dry weight (Example 3); conditions: alone at 10^−8 M; harvested 10 days after planting (FIG. 9)
Protocol: Corn seeds were treated with various combinations of Pea CO (10^-8 M) and Pea LCO (10-8, 10^-9 M). Seeds were planted in greenhouse plastic pots containing 1:1 sand:perlite mixture. Seedlings were harvested 10 days after planting, washed clean and then dried in an oven at 60 C for 48 hr.

Corn seeds [3] = assay: Corn seed germination in petriplates (Example 2); conditions: 5 days after plating
Protocol: Corn seeds were plated in petriplates containing 5 ml of treatment solution on a filter paper. Corn seeds were placed on moist filter paper for germination. Similarly, wheat seeds (spring wheat) were placed in petriplates. […] Roots were harvested and their length measured by WinRhizo system.

[4] = seed treatment, CO compared to LCO, less

CC(=O)NC1C(O)OC(CO)C(OC2OC(CO)C(OC3OC(CO)C(OC4OC(CO)C(OC5OC(CO)C(O)C(O)C5N)C(O)C4NC(C)=O)C(O)C3NC(C)=O)C(O)C2NC(C)=O)C1O (stereo not shown) [CO (CO-V)]
YIELD, Response Increase (% of Control) (corn seed; seed treatment): 3.6 % of Control
yield enhancement when applied to corn seed (corn seed; seed treatment): provided yield enhancement above the Control
YIELD, Mean (N = 10) (corn seed; seed treatment 1×10-8 molar, 1 μg/acre, 3 fluid ounces per 50 pounds of seed, 10 field trials): 188.0 bu/A
CO mean yield less than LCO (corn seed; [4]): 4.6 bu/A
less positive yield responses than LCO (corn seed; [4]): 10.0%
less yield increase above the Control than LCO (corn seed; [4]): 2.5%
Positive Yield Response (%) (corn seed; seed treatment, share of the 10 trials with positive yield enhancement): 80.0%
YIELD, Response (bu/A) (corn seed; seed treatment, versus Control (water)): 6.5 bu/A
yield enhancement as a foliar treatment (corn foliage): performed at least twice better than the LCO
CO mean yield better than foliar LCO response (corn foliage; CO compared to LCO): 5.0 bu/A
YIELD, Response Increase (% of Control) (corn foliage; foliar): 4.8 % of Control
YIELD, Mean (N = 16) (corn foliage; foliar, 4 ounces per acre with glyphosate herbicide, 16 field trials): 201.8 bu/A
higher yield increase than LCO (corn foliage; foliar, CO compared to LCO): 2.6%
trials with a positive response, better than LCO (corn foliage; foliar, CO compared to LCO): 18.8%
Positive Yield Response (%) (corn foliage; foliar, share of the 16 trials with positive yield enhancement): 93.8%
YIELD, Response (bu/A) (corn foliage; foliar, versus Control (water)): 9.2 bu/A
shoot, root and total biomass / plant dry weight compared to LCO ([1]; both experiments): greater shoot, root and total biomass increase over non-inventive and comparable LCO
dry weight increase over LCO ([1]; first trial (FIG. 5), 3 fl oz/100 lbs of seed, harvested after about 3-4 weeks): 11.84%
dry weight-increase over LCO ([1]; second trial (FIG. 6), 3 fl oz/100 lbs of seed, harvested after about 3-4 weeks): 12.63%
corn seedling dry weight (Corn seeds [2]): increased corn seedling dry weight
seed germination (Corn seeds [3]; 5 ml treatment solution on filter paper, vs control (FIG. 7)): increased germination
seedling root length (Corn seeds [3]; WinRhizo system, vs control): significantly increased seedling root length over control
